Like-named read-outs stand apart in the source and are kept apart here.
How the values were obtained:
oilseed rape = assay: Test C pre-/postemergence herbicide test; type: in vivo, Brassica napus
Method in brief: (§1)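 Two application timings ran in parallel with identically formulated test chemicals (non-phytotoxic solvent, surfactant included): spray on seeded loam–sand soil, and spray on emerged plants 2 to 18 cm high. Evaluation at 13 to 15 days compared each species with controls, rated from 0 up to 100.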

crabgrass, large = assay: Test C pre-/postemergence herbicide test; type: in vivo, Digitaria sanguinalis
Method in brief: as §1

corn = assay: Test C pre-/postemergence herbicide test; type: in vivo, Zea mays
Method in brief: as §1

oat, wild = assay: Test C pre-/postemergence herbicide test; type: in vivo, Avena fatua; details: Postemergence
Method in brief: as §1

ragweed = assay: Test C pre-/postemergence herbicide test; type: in vivo, Ambrosia elatior; details: Postemergence
Method in brief: as §1

soybean = assay: Test C pre-/postemergence herbicide test; type: in vivo, Glycine max
Method in brief: as §1

blackgrass = assay: Test C pre-/postemergence herbicide test; type: in vivo, Alopecurus myosuroides
Method in brief: as §1

waterhemp = assay: Test C pre-/postemergence herbicide test; type: in vivo, Amaranthus rudis
Method in brief: as §1

johnsongrass = assay: Test C pre-/postemergence herbicide test; type: in vivo, Sorghum halepense
Method in brief: as §1

galium = assay: Test C pre-/postemergence herbicide test; type: in vivo, Galium aparine
Method in brief: as §1

ryegrass, Italian = assay: Test C pre-/postemergence herbicide test; type: in vivo, Lolium multiflorum
Method in brief: as §1

wheat = assay: Test A pre-/postemergence herbicide test; type: in vivo, Triticum aestivum; details: for plant injury at 500 g/ha: 500 g ai/ha
Method in brief: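 Directed soil spray to seeded pots (preemergence) or spray onto one- to two-leaf seedlings 2–10 cm tall (postemergence); loam/sand substrate throughout. Evaluated visually after about 10 days against untreated plants, 0 = no effect, 100 = complete control.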

[1] = Postemergence, 31 g ai/ha, scale 0 (no effect) to 100 (complete control)
[2] = Postemergence, 62 g ai/ha, scale 0 to 100 (0 no effect, 100 complete control)
[3] = Postemergence, 125 g ai/ha, scale 0 to 100 (0 no effect, 100 complete control)
[4] = Postemergence, 250 g ai/ha, scale 0 to 100 (0 no effect, 100 complete control)
[5] = Preemergence, 31 g ai/ha, scale 0 to 100, 0 is no effect and 100 is complete control
[6] = Preemergence, 62 g ai/ha, scale 0 to 100
[7] = Preemergence, 125 g ai/ha, scale 0 to 100 (0 no effect, 100 complete control)
[8] = 31 g ai/ha, scale 0 (no effect) to 100 (complete control)
[9] = 62 g ai/ha, scale 0 to 100 (0 no effect, 100 complete control)
[10] = 125 g ai/ha, scale 0 to 100 (0 no effect, 100 complete control)
[11] = 250 g ai/ha, scale 0 to 100 (0 no effect, 100 complete control)

## O=C1NCC(c2ccc(C(F)(F)F)cc2)C1C(=O)Nc1ccccc1F (centres unmarked) [Compound 79, N-(2-fluorophenyl)-2-oxo-4-[4-(trifluoromethyl)phenyl]-3-pyrrolidinecarboxamide]
Oilseed rape; [1]
  Plant response rating, Oilseed Rape: 0
Oilseed rape; [2]
  Plant response rating, Oilseed Rape: 0
Oilseed rape; [3]
  Plant response rating, Oilseed Rape: 0
Oilseed rape; [4]
  Plant response rating, Oilseed Rape: 0
Oilseed rape; [5]
  Oilseed Rape plant response rating: 0
Oilseed rape; [6]
  Plant response rating, Oilseed Rape: 5
Oilseed rape; [7]
  Plant response rating, Oilseed Rape: 70
Oilseed rape; Preemergence, 250 g ai/ha
  Plant response rating (scale of 0 to 100), Oilseed Rape: 80
crabgrass, large; [1]
  Plant response rating, Crabgrass, Large: 5
crabgrass, large; [2]
  Plant response rating, Crabgrass, Large: 5
crabgrass, large; [3]
  Plant response rating, Crabgrass, Large: 65
crabgrass, large; [4]
  Plant response rating, Crabgrass, Large: 75
crabgrass, large; [5]
  Crabgrass, Large plant response rating: 95
crabgrass, large; [6]
  Plant response rating, Crabgrass, Large: 98
crabgrass, large; [7]
  Plant response rating, Crabgrass, Large: 100
crabgrass, large; Preemergence, 250 g ai/ha
  Plant response rating (scale of 0 to 100), Crabgrass, Large: 100
corn; [1]
  Plant response rating, Corn: 0
corn; [2]
  Plant response rating, Corn: 0
corn; [3]
  Plant response rating, Corn: 0
corn; [4]
  Plant response rating, Corn: 0
corn; [5]
  Corn plant response rating: 0
corn; [6]
  Plant response rating, Corn: 0
corn; [7]
  Plant response rating, Corn: 10
corn; Preemergence, 250 g ai/ha
  Plant response rating (scale of 0 to 100), Corn: 30
oat, wild; [8]
  Plant response rating, Oat, Wild: 0
oat, wild; [9]
  Plant response rating, Oat, Wild: 0
oat, wild; [10]
  Plant response rating, Oat, Wild: 0
oat, wild; [11]
  Plant response rating, Oat, Wild: 0
ragweed; [8]
  Plant response rating, Ragweed: 20
ragweed; [9]
  Plant response rating, Ragweed: 20
ragweed; [10]
  Plant response rating, Ragweed: 20
ragweed; [11]
  Plant response rating, Ragweed: 45
soybean; [1]
  Plant response rating, Soybean: 0
soybean; [2]
  Plant response rating, Soybean: 0
soybean; [3]
  Plant response rating, Soybean: 10
soybean; [4]
  Plant response rating, Soybean: 10
soybean; [5]
  Soybean plant response rating: 0
soybean; [6]
  Plant response rating, Soybean: 0
soybean; [7]
  Plant response rating, Soybean: 0
soybean; Preemergence, 250 g ai/ha
  Plant response rating (scale of 0 to 100), Soybean: 0
blackgrass; [1]
  Plant response rating, Blackgrass: 0
blackgrass; [2]
  Plant response rating, Blackgrass: 0
blackgrass; [3]
  Plant response rating, Blackgrass: 0
blackgrass; [4]
  Plant response rating, Blackgrass: 5
blackgrass; [5]
  Blackgrass plant response rating: 0
blackgrass; [6]
  Plant response rating, Blackgrass: 65
blackgrass; [7]
  Plant response rating, Blackgrass: 85
blackgrass; Preemergence, 250 g ai/ha
  Plant response rating (scale of 0 to 100), Blackgrass: 85
waterhemp; [1]
  Plant response rating, Waterhemp: 10
waterhemp; [2]
  Plant response rating, Waterhemp: 10
waterhemp; [3]
  Plant response rating, Waterhemp: 10
waterhemp; [4]
  Plant response rating, Waterhemp: 30
waterhemp; [5]
  Waterhemp plant response rating: 25
waterhemp; [6]
  Plant response rating, Waterhemp: 40
waterhemp; [7]
  Plant response rating, Waterhemp: 80
waterhemp; Preemergence, 250 g ai/ha
  Plant response rating (scale of 0 to 100), Waterhemp: 85
johnsongrass; [1]
  Plant response rating, Johnsongrass: 0
johnsongrass; [2]
  Plant response rating, Johnsongrass: 0
johnsongrass; [3]
  Plant response rating, Johnsongrass: 0
johnsongrass; [4]
  Plant response rating, Johnsongrass: 5
johnsongrass; [5]
  Johnsongrass plant response rating: 0
johnsongrass; [6]
  Plant response rating, Johnsongrass: 0
johnsongrass; [7]
  Plant response rating, Johnsongrass: 10
johnsongrass; Preemergence, 250 g ai/ha
  Plant response rating (scale of 0 to 100), Johnsongrass: 10
galium; [1]
  Plant response rating, Galium: 30
galium; [2]
  Plant response rating, Galium: 60
galium; [3]
  Plant response rating, Galium: 60
galium; [5]
  Galium plant response rating: 0
galium; [6]
  Plant response rating, Galium: 5
galium; [7]
  Plant response rating, Galium: 85
galium; Preemergence, 250 g ai/ha
  Plant response rating (scale of 0 to 100), Galium: 90
ryegrass, Italian; [1]
  Plant response rating, Ryegrass, Italian: 0
ryegrass, Italian; [2]
  Plant response rating, Ryegrass, Italian: 0
ryegrass, Italian; [3]
  Plant response rating, Ryegrass, Italian: 0
ryegrass, Italian; [4]
  Plant response rating, Ryegrass, Italian: 0
ryegrass, Italian; [5]
  Ryegrass, Italian plant response rating: 0
ryegrass, Italian; [6]
  Plant response rating, Ryegrass, Italian: 5
ryegrass, Italian; [7]
  Plant response rating, Ryegrass, Italian: 30
ryegrass, Italian; Preemergence, 250 g ai/ha
  Plant response rating (scale of 0 to 100), Ryegrass, Italian: 30
wheat; Preemergence, 125 g ai/ha, visual rating on 0 to 100 scale (0 no effect, 100 complete control)
  Wheat plant response rating: 0
wheat; Triticum aestivum, post-emergence, 240 h, Postemergence, 125 g ai/ha, 0 to 100 scale, 0 no effect, 100 complete control, read-out: Plant response rating, Wheat
  plant injury at 125 g/ha: 30%
wheat; Triticum aestivum, post-emergence, 240 h, Postemergence, 0 to 100 scale (0 no effect, 100 complete control), read-out: Plant response rating, Wheat
  plant injury at 500 g/ha: 50%
wheat; Triticum aestivum, pre-emergence, 240 h, preemergence, 0 to 100 scale, read-out: Plant response rating, Wheat
  plant injury at 500 g/ha: 20%

Source: US10294202B2, “Pyrrolidinones as herbicides” (FMC Corporation, priority 2013, dated 2019)
